Results published in paper PMC8009478, “Novel Curcumin-Diethyl Fumarate Hybrid as a Dualistic GSK-3β Inhibitor/Nrf2 Inducer for the Treatment of Parkinson’s Disease” (ACS Chemical Neuroscience, 2020).

What was measured:
[1] = tested on: C. elegans BY250 [vtIs7 (Pdat-1:GFP)] CEP neurons; assay: 6-OHDA-induced neurodegeneration of CEP neurons in the C. elegans model of PD; type: in vivo, Caenorhabditis elegans; conditions: cotreatment 5 μM with 6-OHDA 5 mM for 30 min, scored after 72 h
Text: The nematode Caenorhabditis elegans (C. elegans) has been increasingly employed as a genetically tractable in vivo model to study the molecular mechanisms involved in several NDDs due to a short life cycle, fast reproduction, and a highly conserved inheritance (genetic basis).[35] This invertebrate model offers the opportunity to take advantage of the significant conservation of genes and metabolic pathways common to both invertebrates and humans. At the neuronal level, the adult wild-type C. elegans organism contains only eight DA neurons that repeat the features of DA neurons of mammalian, making it possible to simplify the investigations considerably. In the transgenic BY250 [vtIs7 (Pdat-1:GFP)] strain, six DA neurons in the head, namely the four sensory cephalic (CEP) and the two anterior deirid (ADE) neurons, express the green fluorescent protein (GFP) and can be clearly visualized by fluorescence microscopy analysis and thus scored over time.[36] Indeed, in this model, investigations of DA neurons degeneration in vivo are feasible through a first exposition of the nematode to PD-inducing toxin, namely 6-OHDA, followed by direct visualization of the GFP-labeled DA neurons.[37] It is thus possible to screen small molecules for their anti-PD potential, in terms of rescue of the DA neurodegeneration phenotype manifested upon neurotoxin exposure, through visualization and scoring of the alterations of CEP neuron count or neuronal morphology. […] This effect makes it possible the identification of neuroprotective agents with the ability to activate Nrf2 through the inhibition of GSK-3.[38] The curcumin-DEF hybrids 4 and 5 were investigated in the above C. elegans model for their protective effects on 6-OHDA-induced degeneration of a subclass of DA neurons. Animals were incubated with 5 μM concentration of 4 and 5, in the presence of 5 mM of 6-OHDA, for 30 min. After 72 h, the animals were studied by examining the four CEP neurons. Degenerating CEP neurons were morphologically analyzed and quantified (Figure 8). We recorded that in animals treated with 6-OHDA, 68% of CEP neurons degenerated.
Figure 8 Effects of 4 and 5 on 6-OHDA-induced neurodegeneration in C. elegans. Animals were treated with 4 or 5 (5 μM) in the presence of 6-OHDA (5 mM) for 30 min. At the end of incubation, treated animals were placed on fresh agar plates for 72 h and then visualized as described in the Materials and Methods section. (A) In nontreated vtIs7 [pdat-1::GFP] transgenic animals, dopaminergic neurons express GFP, with two of the four CEP cell bodies (white arrows) and relative dendrites (arrowheads) visible in this focal plane in the head. (B) 6-OHDA treatment causes the degeneration of CEP dendrites (empty arrowheads) and two cell bodies (gray arrows), in treated animals. The other two CEP neurons are not visible anymore. (C) Compound 5 cotreatment partially rescues the 6-OHDA-induced toxic effects, with degeneration of one of the CEP dendrites (empty arrowhead) but not the other (arrowhead) and with one CEP cell body still viable (white arrow) and one dying (gray arrow) in this focal plane. […] ADE neurons, which are less affected by 6-OHDA treatment, are also visible but were not scored (asterisks). (D) Quantification of degenerating CEP neurons. Data are expressed as percentages of degenerating neurons and reported as mean ± SEM of at least three independent experiments. […]

GSK-3β = GSK-3β (Homo sapiens, UniProt P49841); assay: Kinetic study of GSK-3β inhibition, competition with ATP (ADP-Glo Kinase Assay); type: biochemical; conditions: ATP 1 to 50 μM; inhibitors 5 and 10 μM; substrate 25 μM; double reciprocal plot
Description: Figure 2 Kinetic data for the curcumin-DEF hybrids 5 and 6. In the reaction mixture, the concentration of compounds employed is reported in the plot, the concentration of the substrate is constant (25 μM), and the concentration of ATP changes from 1 to 50 μM. Each point is the mean of two different experiments analyzed in triplicate.
Kinetic experiments were performed using the ADP-Glo Kinase Assay,[42] in which ATP concentration varied from 1 to 50 μM, the concentrations of inhibitors employed were 5 and 10 μM, while the concentration of GS2 was kept constant (25 μM). Graphs (Figure 2) report the double reciprocal plot of the data.

GSK-3α/β = assay: Phosphorylation of GSK-3α/β (Ser21/9) by Western blotting; conditions: SH-SY5Y, 5 μM, after 1 h of incubation

Chain of GSK-3β (P49841 whole entry): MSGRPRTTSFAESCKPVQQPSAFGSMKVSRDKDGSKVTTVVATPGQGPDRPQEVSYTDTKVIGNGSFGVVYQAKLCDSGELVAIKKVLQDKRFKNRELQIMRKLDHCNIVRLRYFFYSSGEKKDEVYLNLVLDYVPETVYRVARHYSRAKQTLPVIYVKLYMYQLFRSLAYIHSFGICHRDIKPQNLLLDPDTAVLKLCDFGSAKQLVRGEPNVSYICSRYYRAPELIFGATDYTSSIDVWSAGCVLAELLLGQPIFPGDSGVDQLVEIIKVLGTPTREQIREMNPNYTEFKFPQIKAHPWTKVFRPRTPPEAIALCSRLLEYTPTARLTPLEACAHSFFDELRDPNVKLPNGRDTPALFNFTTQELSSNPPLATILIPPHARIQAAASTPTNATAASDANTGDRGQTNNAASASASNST

Compound | degenerating CEP neurons [1] [%] | rescue of the 6-OHDA-induced degeneration phenotype [1] | mechanism of inhibition as regards competition with ATP (GSK-3β) | phospho-GSK-3α/β (Ser21/9) levels (GSK-3α/β)
CCOC(=O)/C=C/C(C(=O)/C=C/c1ccc(OC)cc1)=C(O)\C=C\c1ccc(OC)cc1 [Compound 4, Ethyl (2E,4Z,6E)-5-Hydroxy-7-(4-methoxyphenyl)-4-((E)-3-(4-methoxyphenyl)acryloyl)hepta-2,4,6-trienoate] | 67 | no rescue | – | –
CCOC(=O)/C=C/C(C(=O)/C=C/c1ccc(OC)cc1)=C(O)\C=C\c1ccc(OCc2ccccc2)cc1 [Compound 5, Ethyl (2E,4Z,6E)-7-(4-(Benzyloxy)phenyl)-5-hydroxy-4-((E)-3-(4-methoxyphenyl)acryloyl)hepta-2,4,6-trienoate] | 55 | partial rescue | noncompetitive inhibitors of ATP binding | increase phospho-GSK-3α/β (Ser21/9) levels
